{"source": "patent US11311513B2", "about": "“Methods, agents, and compositions for the treatment of acute myeloid leukemia” (UNIVERSITY OF CINCINNATI, priority 2017, dated 2022)", "key": {"NB4 cells": {"system": "NB4 cells", "assay": "MTS cell viability, TET1-low control cell line", "assay_type": "cell-based", "conditions": "up to 500 nM, 48 hrs", "experimental": "(§1) FIG. 1. […] Cell viability was analyzed by MTS 48 hours post-treatment. […] TET1 expression levels were detected by qPCR 48 hrs post-treatment. […] TET1 expression levels (e) and cell viability (f) were detected 24 hrs post-treatment. *, P<0.05, two-tailed t-test. MM6, MONOMAC-6. Error bar indicates SD of triplicate experiments.\nMONOMAC-6, THP-1, KOCL-48, KASUMI-1, ML-2 and NB4 cells were purchased from ATCC (Manassas, Va.), and cultured as described previously (Jiang, X., et al. Blockade of miR-150 Maturation by MLL-Fusion/MYC/LIN-28 Is Required for MLL-Associated Leukemia. Cancer Cell 22, 524-535 (2012); Li, Z., et al. miR-196b directly targets both HOXA9/MEIS1 oncogenes and FAS tumour suppressor in MLL-rearranged leukaemia. (Li, Z., et al., miR-196b directly targets both HOXA9/MEISV oncogenes and FAS tumour suppressor in MLL-rearranged leukaemia, Nat Commun 2:688 (2012)). All cell lines were tested for mycoplasma contamination yearly using a PCR Mycoplasma Test Kit (PromoKine) and were proven to be mycoplasma negative. All cell lines were authenticated through STR profiling yearly. […]"}, "MLL-AF9-induced AML": {"system": "MLL-AF9-induced AML", "assay": "MLL-AF9 AML secondary BMT mouse model", "assay_type": "in vivo, mice", "conditions": "for mice cured / median survival: 2.5 mg/kg i.p. once per day for 10 days; for median survival: control 49 days", "experimental": "FIG. 2. […] The secondary BMT recipient mice were transplanted with leukemic BM blast cells collected from primary MLL-AF9 AML mice. […] Kaplan-Meier curves are shown. The P values were determined by log-rank test. (b) Wright-Giemsa staining of mouse peripheral blood (PB) and BM, or hematoxylin and eosin (H&E) staining of mouse spleen and liver of the treated or control leukemic mice. (c,d) Tet1/2/3 gene expression levels (c) or Tet1 protein level (d) in BM blast cells of the treated or control leukemic mice. *, P<0.05, two-tailed t-test. Error bar indicates SD of triplicate experiments. […] The secondary BMT recipient mice were transplanted with leukemic BM blast cells collected from the primary AE9a-AML mice. […] Kaplan-Meier curves are shown. The P values were determined by log-rank test.\n(§2) Secondary mouse BMT was carried out as described previously. […] For the “5+3” treatment, AraC (Cytarabine, Bedford Laboratories) and DNR (Daunorubicin, Sigma-Aldrich) were reconstituted with PBS, filtered, and stored in aliquots at −20° C. The “5+3” therapy regimen consists of five consecutive daily doses of 50 mg/kg AraC along with 3 mg/kg DNR daily during the first three days of treatment. Drugs were delivered by tail vein and intraperitoneal injection. Weights were taken daily during treatment and doses were recalculated to ensure the mice received a consistent dose of 50 mg/kg AraC and 3 mg/kg DNR every treatment."}, "global 5hmC level": {"system": "global 5hmC level", "assay": "Global 5hmC level (5hmC labeling and dot-blotting)", "assay_type": "cell-based", "conditions": "for global 5hmC levels: MONOMAC-6 cells", "experimental": "as §1\nThe 5-hydroxymethylcytosine (5-hmC) labeling reactions and 5hmC dot blotting were performed as described previously (Huang, H., et al. TET1 plays an essential oncogenic role in MLL-rearranged leukemia. Proc Natl Acad Sci USA 110, 11994-11999 (2013)). Briefly, 3 jig sonicated genomic DNA (100-500 bp) fragments were incubated in solution containing 50 mM Hepes buffer (pH 7.9), 25 mM MgCl2, 100 jiM UDP-6-N3-Glc, and 1 jiM beta-glucosyltransferase (f3-GT) for 1 hr at 37° C. The CLICK was performed with addition of 150 jiM dibenzocyclooctyne modified biotin into the purified DNA solution, and the reaction mixture was incubated for 2 hrs at 37° C. Six hundred nanograms of labeled genomic DNA samples were spotted on an Amersham Hybond-N+ membrane (GE Healthcare, Little Chalfont, UK). DNA was fixed to the membrane by Stratagene UV Stratalinker 2400 (auto-crosslink). The membrane was then blocked with 5% BSA and incubated with Avidin-HRP (1:40,000) (Bio-Rad, Hercules, Calif.), and then visualized by enhanced chemiluminescence."}, "FLT3-ITD/NPM1^mut AML": {"system": "FLT3-ITD/NPM1^mut AML", "assay": "FLT3-ITD/NPM1mut AML secondary BMT mouse model", "assay_type": "in vivo, mice", "conditions": "2.5 mg/kg i.p. once per day for 10 days; for median survival: control 21 days", "experimental": "FIG. 4. […] (a) Structures of NSC-370284 and UC-514321. […] Cells were treated with drugs at indicated doses. Cell viability was detected by MTS 48 hrs post-treatment. Error bar indicates SD of triplicate experiments. […] Secondary BMT recipient mice were transplanted with primary leukemic BM cells with MLL-AF9 (f) or AML-ETO9a (g). […] Kaplan-Meier curves are shown. The P values were determined by log-rank test. […] Secondary BMT recipient mice were transplanted with primary leukemic BM cells with MLL-AF10 or FLT3-ITD/NPM1^mut. […] Kaplan-Meier curves are shown. The P values were determined by log-rank test. (j) Wright-Giemsa staining of mouse PB and BM, or H&E staining of mouse spleen and liver of MLL-AF9 AML secondary BMT recipients with or without drug treatment.\nas §2"}, "[1]": {"assay": "Maximum tolerated dose and median lethal dose", "assay_type": "in vivo"}, "[2]": {"system": "normal hematopoietic stem/progenitor cells (c-Kit+ BM cells)", "assay": "MTS and apoptosis assays in normal HSPCs", "assay_type": "cell-based, mice", "conditions": "50 nM; 3 days", "experimental": "FIG. 14. […] BM cells of leukemic mice with MLL-AF9 fusion (MA9-AML) or FLT3-ITD/NPM1^mut, and c-Kit^+ HSPCs from a pool of 6 healthy donor mice were cultured in liquid medium. […] MTS (a), apoptosis assays (b) and qPCR (c) were conducted 3 days after cell seeding or drug treatments. Error bar indicates SD of triplicate experiments.\nThese experiments were conducted as described previously (Jiang, X., et al., Blockade of miR-150 Maturation by MLL-Fusion/MYC/LIN-28 Is Required for MLL-Associated Leukemia, Cancer Cell 22:524-35 (2012); Li, Z., et al., miR-196b directly targets both HOXA9/MEIS1 oncogenes and FAS tumour suppressor in MLL-rearranged leukaemia, Nat Commun 2:688 (2012)) with ApoLive-Glo Multiplex Assay Kit, or CellTiter 96 AQueous Non-Radioactive Cell Proliferation Assay Kit (Promega, Madison, Wis.)."}}, "note": "Like-named read-outs stand apart in the source and are kept apart here."}
{"smiles": "COc1cc(C(c2cc3c(cc2O)OCO3)N2CCCC2)cc(OC)c1OC", "note": "(centres unmarked) [NSC-370284, 6-(1-Pyrrolidinyl(3,4,5-trimethoxyphenyl)methyl)-1,3-benzodioxol-5-ol]", "values": [{"measurement": "inhibition of viability of NB4 cells", "setting": "NB4 cells", "result": "no significant inhibition"}, {"measurement": "mice cured", "setting": "MLL-AF9-induced AML", "result": 57, "unit": "%"}, {"measurement": "median survival", "setting": "MLL-AF9-induced AML", "result": "> 200", "unit": "days"}, {"measurement": "global 5hmC level", "setting": "global 5hmC level; 300 nM, THP-1 and MONOMAC-6 cells", "result": "significantly repressed"}, {"measurement": "global 5hmC levels", "setting": "global 5hmC level", "result": "significantly reduced"}, {"measurement": "median survival", "setting": "FLT3-ITD/NPM1^mut AML", "result": 34, "unit": "days"}, {"measurement": "LD50", "setting": "[1]; C57BL/6, mouse, in vivo, ip, C57BL/6, I.P., read-out: LD50", "result": "~123", "unit": "mg/kg"}, {"measurement": "MTD", "setting": "[1]; C57BL/6, mouse, in vivo, ip, mice, I.P., read-out: maximum tolerated dose", "result": "65 to 85.6", "unit": "mg/kg"}, {"measurement": "Number of Death", "setting": "[1]; I.P. 65 mg/kg, 10 exposed", "result": 0}, {"measurement": "Number of Death", "setting": "[1]; I.P. 85.6 mg/kg, 10 exposed", "result": 1}, {"measurement": "Number of Death", "setting": "[1]; I.P. 113.5 mg/kg, 10 exposed", "result": 3}, {"measurement": "Number of Death", "setting": "[1]; I.P. 150 mg/kg, 10 exposed", "result": 6}, {"measurement": "Number of Death", "setting": "[1]; I.P. 200 mg/kg, 10 exposed", "result": 10}, {"measurement": "toxicity on normal HSPCs (viability, apoptosis)", "setting": "[2]", "result": "no obvious toxicity"}]}
{"smiles": "CC(C)(C)c1cc(C(c2cc3c(cc2O)OCO3)N2CCOCC2)cc(C(C)(C)C)c1O", "note": "(centres unmarked) [UC-514321, 6-{[4-Hydroxy-3,5-bis(2-methyl-2-propanyl)phenyl](4-morpholinyl)methyl}-1,3-benzodioxol-5-ol]", "values": [{"measurement": "inhibition of viability of NB4 cells", "setting": "NB4 cells", "result": "no inhibitory effect"}, {"measurement": "mice cured", "setting": "MLL-AF9-induced AML", "result": 66.7, "unit": "%"}, {"measurement": "median survival", "setting": "MLL-AF9-induced AML", "result": "> 200", "unit": "days"}, {"measurement": "prolongation of median survival", "setting": "MLL-AF9-induced AML; versus control, 2.5 mg/kg i.p. 10 days", "result": "over 3 folds"}, {"measurement": "global 5hmC levels", "setting": "global 5hmC level", "result": "significantly reduced"}, {"measurement": "recipients that developed full-blown AML within 50 days", "setting": "FLT3-ITD/NPM1^mut AML", "result": "none"}, {"measurement": "median survival", "setting": "FLT3-ITD/NPM1^mut AML", "result": "> 50", "unit": "days"}, {"measurement": "MTD", "setting": "[1]; C57BL/6, mouse, in vivo, ip", "result": "65 to 85.6", "unit": "mg/kg"}, {"measurement": "Number of Death", "setting": "[1]; C57BL/6, mouse, in vivo, ip, 65 mg/kg", "result": 0}, {"measurement": "Number of Death", "setting": "[1]; C57BL/6, mouse, in vivo, ip, 85.6 mg/kg", "result": 1}, {"measurement": "Number of Death", "setting": "[1]; C57BL/6, mouse, in vivo, ip, 113.5 mg/kg", "result": 2}, {"measurement": "Number of Death", "setting": "[1]; C57BL/6, mouse, in vivo, ip, 150 mg/kg", "result": 7}, {"measurement": "Number of Death", "setting": "[1]; C57BL/6, mouse, in vivo, ip, 200 mg/kg", "result": 10}, {"measurement": "LD50", "setting": "[1]; C57BL/6, mouse, in vivo, ip, LD50", "result": "~123", "unit": "mg/kg"}, {"measurement": "toxicity on normal HSPCs (viability, apoptosis)", "setting": "[2]", "result": "no obvious toxicity"}]}
